Where two headings read alike, the source gives them in different places.
Tests used:
[1] = tested on: ovarian cancer cells (OVCAR-3); assay: Cancer cell line growth inhibition, Sulforhodamine B assay, OVCAR-3; assay type: cell-based; conditions: read-out: Cancer Cell Line GI50 Range OVCAR-3
Experimental: (§1) Breast cancer cells (MDA-MB-231 and MDA-MB-468), colon cancer cells (HCT116) and ovarian cancer cells (PA-1 and OVCAR-3) were seeded (1000 to 4000 in 80 μl per well depending on the cell growth rate) into 96 well plates 24 hours before compound overlay. Compounds were prepared as 10 mM stock solutions in 100% DMSO which were diluted with DMEM (Dulbecco's Modified Eagle's Medium) cell growth Medium (Invitrogen, Burlington, ON, Canada) containing 10% FBS (Fetal Bovine Serum) to concentrations ranging from 50 nM to 250 μM. Aliquots (20 μl) from each concentration were overlaid to 80 μl of the pre-seeded cells in the 96 well plates to make final concentrations of 10 nM to 50 μM. The cells were cultured for 5 days before the Sulforhodamine B assay (SRB) was performed to determine the compound's cell growth inhibition activity.
(§2) Sulforhodamine B (purchased from Sigma, Oakville, ON, Canada) is a water-soluble dye that binds to the basic amino acids of the cellular proteins. Thus, colorimetric measurement of the bound dye provides an estimate of the total protein mass that is related to the cell number. the cells are fixed in situ by gently aspirating off the culture media and adding 50 μl ice cold 10% Trichloroacetic Acid (TCA) per well and incubate at 4° C. for 30-60 min, The plates are washed with H2O five times and allowed to air dry for 5 min. Addition of 50 μl 0.4% (w/v) SRB solution in 1% (v/v) acetic acid to each well and incubation for 30 min at RT completes the staining reaction. Following staining, plates are washed four times with 1% acetic acid to remove unbound dye and then allowed to air dry for 5 min. The stain is solubilized with 100 μl of 10 mM Tris pH 10.5 per well. Absorbance is read at 570 nm.
(§3) The percentage (%) of relative growth inhibition was calculated by comparing to DMSO treated only cells (100%). GI50's were determined for compounds with cytotoxic activity. The GI50 was calculated using GraphPad PRISM software (GraphPad Software, Inc., San Diego, Calif., USA).
(§4) In Table 3 below, GI50 value ranges for compound examples against breast cancer cell lines (MDA-MB-468), colon cancer cell lines (HCT116) and ovarian cancer cell lines (OVCAR-3) are given.

human TTK = biological target: T1, human TTK (Homo sapiens, UniProt P33981); assay: TTK inhibition assay (indirect ELISA); assay type: biochemical; conditions: 100 μM ATP; read-out: TTK IC50 Range
T1 construct: Active TTK was purchased from Invitrogen as an amino terminal GST fusion of full length human TTK; purchased Invitrogen
T1 sequence (P33981 1-857): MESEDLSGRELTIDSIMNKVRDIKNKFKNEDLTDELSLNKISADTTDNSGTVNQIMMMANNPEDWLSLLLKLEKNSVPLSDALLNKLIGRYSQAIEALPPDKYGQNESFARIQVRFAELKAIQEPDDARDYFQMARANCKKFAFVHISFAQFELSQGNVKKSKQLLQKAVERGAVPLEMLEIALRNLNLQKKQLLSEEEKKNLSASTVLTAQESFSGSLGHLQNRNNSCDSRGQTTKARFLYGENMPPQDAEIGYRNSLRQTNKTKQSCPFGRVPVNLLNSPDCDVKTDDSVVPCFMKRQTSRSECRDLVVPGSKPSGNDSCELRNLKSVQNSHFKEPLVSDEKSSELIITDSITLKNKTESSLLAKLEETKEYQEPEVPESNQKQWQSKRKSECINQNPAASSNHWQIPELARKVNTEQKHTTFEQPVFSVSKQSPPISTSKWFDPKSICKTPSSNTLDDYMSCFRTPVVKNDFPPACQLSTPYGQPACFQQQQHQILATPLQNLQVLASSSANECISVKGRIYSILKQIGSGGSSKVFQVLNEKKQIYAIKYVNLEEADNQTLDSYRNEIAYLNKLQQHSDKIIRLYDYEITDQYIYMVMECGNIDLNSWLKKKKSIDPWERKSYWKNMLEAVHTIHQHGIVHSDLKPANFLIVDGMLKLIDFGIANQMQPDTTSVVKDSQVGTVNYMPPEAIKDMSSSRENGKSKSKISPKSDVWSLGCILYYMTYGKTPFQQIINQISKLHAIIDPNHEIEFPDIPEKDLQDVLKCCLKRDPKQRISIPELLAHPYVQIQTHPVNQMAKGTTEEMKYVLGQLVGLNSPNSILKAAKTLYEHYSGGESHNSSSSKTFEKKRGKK
Procedure, shortened: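 Activity detected by indirect ELISA after compounds sat with full-length GST-TTK for 5 min prior to starting the reaction with ATP. IC50 came from a four-parameter logistic curve of % inhibition, calculated against background and uninhibited control wells.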

[2] = tested on: breast cancer cells (MDA-MB-468); assay: Cancer cell line growth inhibition, Sulforhodamine B assay, MDA-MB-468; assay type: cell-based; conditions: read-out: Cancer Cell Line GI50 Range MDA-MB-468
Experimental: as §1, §2, §3
(§5) In Table 1 below, GI50 value ranges for compound examples against breast cancer cell lines (MDA-MB-468), colon cancer cell lines (HCT116) and ovarian cancer cell lines (PA-1) are given.
as §4

[3] = tested on: colon cancer cells (HCT116); assay: Cancer cell line growth inhibition, Sulforhodamine B assay, HCT116; assay type: cell-based; conditions: read-out: Cancer Cell Line GI50 Range HCT116
Experimental: as §1, §2, §3, §5
In Table 2 below, GI50 value ranges for compound examples against breast cancer cell lines (MDA-MB-231), colon cancer cell lines (HCT116) and ovarian cancer cell lines (PA-1) are given.
as §4

[4] = Homo sapiens, OVCAR-3, OVCAR-3 ovarian cancer cell line
[5] = Homo sapiens, MDA-MB-468, MDA-MB-468 breast cancer cell line
[6] = Homo sapiens, HCT-116, HCT116 colon cancer cell line

Row | SMILES | GI50 [1, 4] | IC50 (human TTK) | GI50 [2, 5] | GI50 [3, 6] | GI50 ([1]; OVCAR-3 ovarian cancer cell line) | GI50 ([2]; MDA-MB-468 breast cancer cell line) | GI50 ([3]; HCT116 colon cancer cell line)
1 | Cc1cc(-c2cnn3c(NCC4(CO)CCOCC4)cc(Oc4cccnc4)nc23)ccc1C(=O)NC1CC1 [Example C99] | > 500 nM | < 100 nM | > 500 nM | 100 to 500 nM |  |  | 
2 | Cc1cc(-c2cnn3c(NCC4CCOCC4)cc(NCC4CCOCC4)nc23)ccc1C(=O)NC1CC1 [Example C57] | 100 to 500 nM | < 100 nM | 100 to 500 nM | 100 to 500 nM |  |  | 
3 | Cc1cc(-c2cnn3c(NCC4CCOCC4)cc(NCC4CC4)nc23)ccc1C(=O)NC1CC1 [Example C103] | 100 to 500 nM | < 100 nM | 100 to 500 nM | ≤ 100 nM |  |  | 
4 | Cc1cc(-c2cnn3c(NC[C@H]4C[C@@](C)(O)C4)cc(NC4CCCC4)nc23)ccc1C(=O)NC1CC1 [Example C44, 4-(5-(cyclopentylamino)-7-((((1s,3s)-3-hydroxy-3-methylcyclobutyl)methyl)amino)pyr-azolo[1,5-a]pyrimidin-3-yl)-N-cyclopropyl-2-methylbenzamide] | ≤ 100 nM | < 100 nM | ≤ 100 nM | ≤ 100 nM |  |  | 
5 | Cc1cc(-c2cnn3c(NCC4CCOCC4)cc(N[C@@H]4CCOC4)nc23)ccc1C(=O)NC1CC1 [Example C136] | 100 to 500 nM | < 100 nM | ≤ 100 nM | ≤ 100 nM |  |  | 
6 | Cc1cc(-c2cnn3c(NCCN4CCOCC4)cc(Oc4ccc(F)cc4)nc23)ccc1C(=O)NC1CC1 [Example C181] | 100 to 500 nM | < 100 nM | 100 to 500 nM | ≤ 100 nM |  |  | 
7 | Cc1cc(-c2cnn3c(NCC4CC4)cc(Oc4cccnc4)nc23)ccc1C(=O)NC1CC1 [Example C152] | ≤ 100 nM | < 100 nM | ≤ 100 nM | ≤ 100 nM |  |  | 
8 | Cc1cc(-c2cnn3c(NCC4CC4)cc(NC4CCOCC4)nc23)ccc1C(=O)NC1CC1 [Example C153] | 100 to 500 nM | < 100 nM | 100 to 500 nM | ≤ 100 nM |  |  | 
9 | Cc1cc(-c2cnn3c(NCC(C)C)cc(N[C@H](CO)C(C)C)nc23)ccc1C(=O)NC1CC1 [Example C158] | 100 to 500 nM | < 100 nM | 100 to 500 nM | ≤ 100 nM |  |  | 
10 | Cc1cc(-c2cnn3c(NCCN4CCN(C)CC4)cc(Oc4cccc(F)c4)nc23)ccc1C(=O)NC1CC1 [Example C178] | 100 to 500 nM | < 100 nM | ≤ 100 nM | ≤ 100 nM |  |  | 
11 | Cc1cc(-c2cnn3c(NCC4CCOCC4)cc(N[C@@H]4CCCOC4)nc23)ccc1C(=O)NC1CC1 [Example C82] | 100 to 500 nM | < 100 nM | 100 to 500 nM | 100 to 500 nM |  |  | 
12 | Cc1cc(-c2cnn3c(NCc4cccnc4)cc(NC4CCOCC4)nc23)ccc1C(=O)NC1CC1 [Example C49] | 100 to 500 nM | < 100 nM | 100 to 500 nM | 100 to 500 nM |  |  | 
13 | Cc1cc(-c2cnn3c(NCCN4CCOCC4)cc(Oc4cccc(N(C)C)c4)nc23)ccc1C(=O)NC1CC1 [Example C96] | > 500 nM | < 100 nM | > 500 nM | > 500 nM |  |  | 
14 | CC[C@H](Nc1cc(NCC2CCOCC2)n2ncc(-c3ccc(C(=O)NC4CC4)c(C)c3)c2n1)C(C)(C)O [Example C127] | 100 to 500 nM | < 100 nM | 100 to 500 nM | ≤ 100 nM |  |  | 
15 | Cc1cc(-c2cnn3c(NCCN4CCOCC4)cc(NC4CCCC4)nc23)ccc1C(=O)NC1CC1 [Example C77] | 100 to 500 nM | < 100 nM | 100 to 500 nM | 100 to 500 nM |  |  | 
16 | Cc1cc(-c2cnn3c(NCC4CCOCC4)cc(N4C5CCC4CC(O)C5)nc23)ccc1C(=O)NC1CC1 (stereo not drawn) [Example C66] | 100 to 500 nM | < 100 nM | 100 to 500 nM | 100 to 500 nM |  |  | 
17 | Cc1cc(-c2cnn3c(NCC4CCOCC4)cc(N4CCC[C@@H]4CO)nc23)ccc1C(=O)NC1CC1 [Example C164] | > 500 nM | < 100 nM | 100 to 500 nM | 100 to 500 nM |  |  | 
18 | Cc1cc(-c2cnn3c(NCC4(O)CCOCC4)cc(NC4CCOCC4)nc23)ccc1C(=O)NC1CC1 [Example C94] | > 500 nM | < 100 nM | > 500 nM | > 500 nM |  |  | 
19 | Cc1cc(-c2cnn3c(NC[C@H]4C[C@H](O)C4)cc(NC4CCCC4)nc23)ccc1C(=O)NC1CC1 [Example C172] | ≤ 100 nM | < 100 nM | ≤ 100 nM | ≤ 100 nM |  |  | 
20 | Cc1cc(-c2cnn3c(NCC4CCOCC4)cc(N[C@H](C(N)=O)C(C)C)nc23)ccc1C(=O)NC1CC1 [Example C111] | 100 to 500 nM | < 100 nM | 100 to 500 nM | 100 to 500 nM |  |  | 
21 | Cc1cc(-c2cnn3c(NCC4CCOCC4)cc(N[C@H](CO)C(C)(C)C)nc23)ccc1C(=O)NC1CC1 [Example C78] | 100 to 500 nM | < 100 nM | 100 to 500 nM | 100 to 500 nM |  |  | 
22 | Cc1cc(-c2cnn3c(NC[C@H]4CCOC4)cc(N[C@H]4CCCC[C@H]4O)nc23)ccc1C(=O)NC1CC1 [Example C35, N-cyclopropyl-4-(5-(((1S,2R)-2-hydroxycyclohexyl)amino)-7-((((R)-tetrahydrofuran-3-yl)methyl)amino)pyrazolo[1,5-a]pyrimidin-3-yl)-2-methylbenzamide] | ≤ 100 nM | < 100 nM | ≤ 100 nM | ≤ 100 nM |  |  | 
23 | Cc1cc(-c2cnn3c(NCc4ccncc4)cc(NC4CCOCC4)nc23)ccc1C(=O)NC1CC1 [Example C54] |  | < 100 nM |  |  | 100 to 500 nM | 100 to 500 nM | 100 to 500 nM
24 | Cc1cc(-c2cnn3c(NCCN4CCC(O)CC4)cc(N[C@H]4CCCC[C@H]4O)nc23)ccc1C(=O)NC1CC1 [Example C183] | > 500 nM | < 100 nM | 100 to 500 nM | > 500 nM |  |  | 
25 | Cc1cc(-c2cnn3c(NCC4CCOCC4)cc(Oc4cncc(F)c4)nc23)ccc1C(=O)NC1CC1 [Example C56] | ≤ 100 nM | < 100 nM | ≤ 100 nM | ≤ 100 nM |  |  | 
26 | Cc1cc(-c2cnn3c(NCC4CCOCC4)cc(NCc4cccnc4)nc23)ccc1C(=O)NC1CC1 [Example C74] | > 500 nM | < 100 nM | 100 to 500 nM | 100 to 500 nM |  |  | 
27 | Cc1cc(-c2cnn3c(NCC4CCOCC4)cc(N[C@H](CO)C4CCCCC4)nc23)ccc1C(=O)NC1CC1 [Example C163] | 100 to 500 nM | < 100 nM | 100 to 500 nM | ≤ 100 nM |  |  | 

Source: patent publication US9573954B2, “Pyrazolopyrimidine compounds” (University Health Network, priority 2012, dated 2017)
